Each block holds one molecule with its values, some of them ahead of it.
Target: T1, rat EP4 receptor (Rattus norvegicus, UniProt P43114)
T1 construct: expressed in transfected cells
Test: Cyclic AMP elevation in 293S cell lines stably overexpressing recombinant rat EP4 receptors
Assay type: cell-based
Details: 293S cells expressing rat EP4, 1 mM IBMX, 12 minutes at 37° C.; read-out: EC50 in the cAMP (rat EP4) elevation assay
From the text: Determination of Cyclic AMP Elevation in 293S Cell Lines Stably Overexpressing Recombinant Rat EP4 Receptors Assay
cDNA representing the complete open reading frame of the rat EP4 receptor is generated by reverse transcriptase polymerase chain reaction using oligonucleotide primers based on published sequences. The full length coding sequence for the rat EP4 receptor is made in accordance with the procedure in Sando et al., Biochem. Biophys. Res. Comm. 1994, 200, 1329-1333, and RNA from rat kidney (EP4) as templates. 293S cells are transfected with the cloned rat EP4 receptor in pcDNA3 by lipid mediated transfection. Stable cell lines expressing the rat EP4 receptor are established following selection of transfected cells with Geneticin® (Invitrogen Corporation, Carlsbad, Calif.).
Clonal cell lines expressing the maximal number of receptors are chosen following a whole cell ^3H-PGE2 binding assay using unlabeled PGE2 as a competitor. […] Constitutive expression of the receptor in parental 293-S cells is negligible. A stable cell line containing the rat EP4 receptor is grown in Dulbecco's Mosified Eagle Medium/F12 (DMEM/F12) containing 10% fetal bovine serum and G418 (500 μg/ml) to 80% confluency.
cAMP responses in the 293-S/EP4 lines are determined by detaching cells from culture flasks in 1 ml of calcium (Ca++) and magnesium (Mg++) deficient phosphate buffered saline (PBS) via vigorous pounding and then rinsing the cells with calcium (Ca++) and magnesium (Mg++) deficient phosphate buffered saline (PBS). The cells are resuspended in MEM (Minimum Essential Medium), 1% BSA (bovine serum albumin), 50 mM HEPES (N-[2-Hydroxyethyl]piperazine-N′-[2-ethanesulfonic acid]) at 37° C. The cell suspension is counted on a hemacytometer and diluted by adding MEM (Minimum Essential Medium) to a final concentration of 1×10^6 cells/ml, and adding 3-isobutyl-1-methylxanthine (IBMX) to a final concentration of 1 mM. 200 microliters of cell suspension is immediately aliquoted into individual tubes and incubated for 10 minutes, uncovered, at 37° C., 5% CO2, 95% relative humidity. The compound of Formula I or II to be tested in either dimethylsulfoxide (DMSO) or ethanol is then added to cells at 1:100 dilutions such that the final DMSO or ethanol concentration is 1%. Typically, the cells are treated with 6-8 different concentrations (in 1 log increments, such as those described below) of the compound of Formula I or II. Typical concentrations of the compound of Formula I or II in this assay are between 10^−5M to 10^−10M. For example, a six point compound dose response assay tests the compound of Formula I or II at concentrations of 10^−5M, 10^−6M, 10^−7M, 10^−8M, 10^−9M and 10^—10M. Immediately after adding the test compound, the tubes are covered, mixed by inverting two times, and incubated at 37° C. for 12 minutes. Samples are then lysed by incubation at 100° C. for 10 minutes and immediately cooled on ice for 5 minutes to approximately 4° C. Cellular debris is pelleted by centrifugation at 3500×g for 5 minutes at approximately 4° C., and cleared lysates are transferred to fresh tubes. cAMP concentrations are determined using a commercially available ^125I-cAMP radioimmunoassay (RIA) kit (NEK-033, Perkin-Elmer Life Sciences, Inc., Boston, Mass.). The cleared lysates are diluted 1:100 in cAMP RIA assay buffer (included in kit) and centrifuged again. 50 microliters of the resulting supernatant is transferred to a 12×75 mm glass tube and data is collected by scintillation counting using a Wallac Cobra II Gamma Counter (Perkin-Elmer Wallac, Inc., Gaithersburg, Md.). EC50 calculations are performed on a calculator using linear regression analysis on the linear portion of the dose response curves or using Data Fitter.

T1 sequence (P43114 whole entry): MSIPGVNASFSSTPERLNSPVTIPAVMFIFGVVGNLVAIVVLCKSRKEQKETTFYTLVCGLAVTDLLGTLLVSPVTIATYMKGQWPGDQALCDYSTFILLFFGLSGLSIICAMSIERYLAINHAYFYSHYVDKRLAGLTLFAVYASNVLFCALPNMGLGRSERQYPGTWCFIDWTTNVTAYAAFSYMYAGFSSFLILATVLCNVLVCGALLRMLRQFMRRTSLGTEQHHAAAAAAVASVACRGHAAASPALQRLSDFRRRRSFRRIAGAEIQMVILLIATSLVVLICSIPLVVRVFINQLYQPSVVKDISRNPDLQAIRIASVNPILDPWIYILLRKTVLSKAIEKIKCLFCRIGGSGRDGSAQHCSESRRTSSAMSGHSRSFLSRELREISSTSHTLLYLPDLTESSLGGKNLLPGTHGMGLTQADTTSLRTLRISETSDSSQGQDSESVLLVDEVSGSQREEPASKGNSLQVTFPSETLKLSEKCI

Structure (SMILES): O=C1CC[C@H](CCC(O)Cc2cccc(Cl)c2)N1CCCCCCc1nn[nH]n1 (stereo partly drawn) [Example 3, 5S-[4-(3-Chloro-phenyl)-3-hydroxy-butyl]-1-[6-(2H-tetrazol-5-yl)-hexyl]-pyrrolidin-2-one]
- EC50: 33.1 nM

Structure (SMILES): O=C1CC[C@H](CC[C@@H](O)Cc2cccc(C(F)(F)F)c2)N1CCCCCCc1nn[nH]n1 [Example 4, 5S-[3R-Hydroxy-4-(3-trifluoromethyl-phenyl)-butyl]-1-[6-(2H-tetrazol-5-yl)-hexyl]-pyrrolidin-2-one]
- EC50: 70.2 nM

Structure (SMILES): O=C1CCC(CCC(O)Cc2cccc(-c3ccccc3)c2)N1CCCCCCc1nn[nH]n1 (stereo not drawn) [Example 6, 5-(4-Biphenyl-3-yl-3-hydroxy-butyl)-1-[6-(2H-tetrazol-5-yl)-hexyl]-pyrrolidin-2-one]
- EC50: 175 nM

The remaining molecules from weak to strong by EC50, led by results:

- EC50: 32.5 nM
Structure (SMILES): O=C(O)CCCCCCN1C(=O)CCC1CCC(O)Cc1ccccc1 (stereo not drawn) [Example 9, 7-(2-(3-hydroxy-4-phenyl-butyl)-5-oxo-pyrrolidin-1-yl)-heptanoic acid]

- EC50: 13.2 nM
Structure (SMILES): O=C(O)CCCCCCN1C(=O)CC[C@@H]1CC[C@@H](O)Cc1cccc(C(F)(F)F)c1 [Example 2, 7-{2S-[3R-hydroxy-4-(3-trifluoromethyl-phenyl)-butyl]-5-oxo-pyrrolidin-1-yl}-heptanoic acid]

- EC50: 8.8 nM
Structure (SMILES): O=C(O)CCCCCCN1C(=O)CC[C@@H]1CC[C@@H](O)Cc1cccc(Cl)c1 [Example 1, 7-{2S-[4-(3-Chloro-phenyl)-3R-hydroxy-butyl]-5-oxo-pyrrolidin-1-yl}-heptanoic acid]

Reference: US20030176479A1, “Use of selective EP4 receptor agonists for the treatment of liver failure, loss of patency of the ductus arteriosus, glaucoma or ocular hypertension” (priority 2002, published 2003)
